Measured values reported in patent US7576082B2, “Oxindole derivatives” (Hoffman-La Roche Inc., priority 2005, dated 2009).

What follows are compounds tested against interaction between p53 and MDM2 proteins (Homo sapiens, UniProt Q00987) (assay: HTRF assay of inhibition of the interaction between p53 and MDM2 proteins (GST-MDM2 / biotinylated p53 peptide)). Conditions: recombinant GST-tagged MDM2, biotinylated p53 peptide, 37° C. for 1 h.
Type: binding
Protocol: […], the ability of the compounds to inhibit the interaction between p53 and MDM2 proteins was measured.
The ability of the compounds to inhibit the interaction between p53 and MDM2 proteins was measured by an HTRF (homogeneous time-resolved fluorescence) assay in which recombinant GST-tagged MDM2 binds to a peptide that resembles the MDM2-interacting region of p53 (Lane et al.). Binding of GST-MDM2 protein and p53-peptide (biotinylated on its N-terminal end) is registered by the FRET (fluorescence resonance energy transfer) between Europium (Eu)-labeled anti-GST antibody and streptavidin-conjugated Allophycocyanin (APC).
Test is performed in black flat-bottom 384-well plates (Costar) in a total volume of 40 uL containing: 90 nM biotinylate peptide, 160 ng/ml GST-MDM2, 20 nM streptavidin-APC (PerkinElmerWallac), 2 nM Eu-labeled anti-GST-antibody (PerkinElmerWallac), 0.2% bovine serum albumin (BSA), 1 mM dithiothreitol (DTT) and 20 mM Tris-borate saline (TBS) buffer as follows: Add 10 uL of GST-MDM2 (640 ng/ml working solution) in reaction buffer to each well. Add 10 uL diluted compounds (1:5 dilution in reaction buffer) to each well, mix by shaking. Add 20 uL biotinylated p53 peptide (180 nM working solution) in reaction buffer to each well and mix on shaker. Incubate at 37° C. for 1 h. Add 20 uL streptavidin-APC and Eu-anti-GST antibody mixture (6 nM Eu-anti-GST and 60 nM streptavidin-APC working solution) in TBS buffer with 0.2% BSA, shake at room temperature for 30 minutes and read using a TRF-capable plate reader at 665 and 615 nm (Victor 5, Perkin ElmerWallac). If not specified, the reagents were purchased from Sigma Chemical Co.

interaction between p53 and MDM2 proteins, sequence (Q00987 whole entry): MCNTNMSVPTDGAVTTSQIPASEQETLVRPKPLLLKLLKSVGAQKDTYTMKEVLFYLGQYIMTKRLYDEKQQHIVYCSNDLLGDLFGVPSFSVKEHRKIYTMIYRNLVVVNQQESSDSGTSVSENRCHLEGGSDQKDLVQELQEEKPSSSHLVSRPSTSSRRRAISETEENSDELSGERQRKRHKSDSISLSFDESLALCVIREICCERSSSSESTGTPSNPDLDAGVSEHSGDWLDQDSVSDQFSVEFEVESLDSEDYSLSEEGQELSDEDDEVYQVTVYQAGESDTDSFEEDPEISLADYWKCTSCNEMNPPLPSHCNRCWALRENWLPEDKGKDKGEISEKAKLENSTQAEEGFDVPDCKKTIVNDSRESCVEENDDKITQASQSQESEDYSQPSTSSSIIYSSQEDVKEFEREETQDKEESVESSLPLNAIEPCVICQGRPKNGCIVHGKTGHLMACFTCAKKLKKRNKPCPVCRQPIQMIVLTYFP

| SMILES | IC50 |
| --- | --- |
| O=C1Nc2cc(Cl)ccc2C1(Cc1ccccc1)C1CCCC1 (racemic) [Example 3C, rac-3-Benzyl-6-chloro-3-cyclopentyl-1,3-dihydro-indol-2-one] | 5.38 µM |
| COc1cccc(C2(Cc3ccccc3)C(=O)Nc3cc(Cl)ccc32)c1 (racemic) [Example 6C, rac-3-Benzyl-6-chloro-3-(3-methoxy-phenyl)-1,3-dihydro-indol-2-one] | 9.49 µM |
| COc1cccc(C2(Cc3cccc(Cl)c3)C(=O)Nc3cc(Cl)ccc32)c1 (racemic) [Example 9, rac-6-Chloro-3-(3-chloro-benzyl)-3-(3-methoxy-phenyl)-1,3-dihydro-indol-2-one] | 0.46 µM |
| COc1cccc([C@]2(Cc3cccc(Cl)c3)C(=O)Nc3cc(Cl)ccc32)c1 (single isomer, unassigned) [Example 13] | 0.28 µM |
